From patent publication US20240165227A1, “ANTICANCER THERAPIES USING ANTI-CCR8 ANTIBODY, CHEMO AND IMMUNOTHERAPY COMBINATIONS” (Gilead Sciences, Inc., priority 2022, published 2024)

Columns and labels:
[1] = test system: LLC (lung cancer); experiment: LLC syngeneic mouse lung model, first study, tumor growth; assay type: in vivo; conditions: single dose low dose docetaxel 5 mg/kg and/or anti-CCR8 antibody Q3D 1 mg/kg, FIG. 6
Protocol: (§1) The ability of an anti-CCR8 antibody to augment tumor-specific effector T cell responses when paired with low-dose chemotherapy with or without an anti-PD-1 mAb was tested in vivo in different mouse syngeneic models, including 4T1 (breast cancer), Pan02 (pancreatic cancer), B16F10 (melanoma), LLC (lung cancer). 4T1 and Pan02 models are commonly understood to represent solid tumor models with strong immunosuppressive components. B16F10 and LLC are commonly viewed as cold tumor models.
(§2) The anti-CCR8 antibody used for the studies described herein is a mouse IgG2a isotype, and as described, e.g., by Campbell, J. R., et al. (2021). “Fc-Optimized Anti-CCR8 Antibody Depletes Regulatory T Cells in Human Tumor Models.” Cancer Res 81(11): 2983-2994. Isotype Control is a mouse IgG2a (BioXcell). Anti-PD-1 antibody is a mouse IgG1 antibody with D265A mutation.
(§3) A first study using the LLC model tested the relative antitumor activities of anti-CCR8 antibody and docetaxel administrations as single agents and in combination. Following inoculation, mice were randomized and grouped (n=8 animals per group) when tumors reached 80-120 mm^3 and administered a single dose of low dose docetaxel at 5 mg/kg (approximately 50% of most efficacious dose) and/or anti-CCR8 antibody Q3D at 1 mg/kg. A control group received an isotype control antibody.

[2] = test system: LLC (lung cancer); experiment: LLC syngeneic mouse lung model, second study (single, dual, triple combinations), tumor growth; assay type: in vivo; conditions: docetaxel 5 mg/kg, anti-CCR8 antibody Q3D 1 mg/kg, anti-PD-1 antibody Q3D 10 mg/kg, FIG. 7, FIG. 8
Protocol: as §1, §2
A second study using the LLC model tested the relative antitumor activities of anti-CCR8 antibody, anti-PD-1 antibody, and low dose docetaxel as single agents, dual combinations, and a triple combination. Following inoculation, mice were randomized and grouped (n=10 animals per group) when tumors reached 80-120 mm^3 and administered a single dose of docetaxel at 5 mg/kg, and/or anti-CCR8 antibody Q3D at 1 mg/kg, and/or anti-PD-1 antibody Q3D at 10 mg/kg. A control group received an isotype control antibody. […]

[3] = test system: B16F10 (melanoma); experiment: B16F10 syngeneic mouse melanoma model, first study, tumor growth; assay type: in vivo; conditions: single dose low dose gemcitabine 15 mg/kg and/or anti-CCR8 antibody Q3D 1 mg/kg, FIG. 3
Protocol: as §1, §2
as §3, with “the B16F10” for “the LLC”, “and gemcitabine” for “and docetaxel”, “grouped (n=10” for “grouped (n=8”, “dose gemcitabine” for “dose docetaxel”, “at 15” for “at 5”, “antibody. […] Tumors were collected at Day 5 post-dose. […]” for “antibody.”

[4] = test system: tumor infiltrating lymphocytes from B16F10 tumors; experiment: B16F10 model, flow cytometry of tumor infiltrating lymphocytes (Treg and CD8 frequency); assay type: in vivo, mouse; conditions: B16F10 tumors collected at Day 5 post-dose, FIG. 4B
Text: FIG. 4A and FIG. 4B show bar charts illustrating tumor infiltrating lymphocytes from a syngeneic mouse melanoma model (B16F10). Mice were each administered with a single dose of a control antibody, gemcitabine (“low dose SOC chemo”) and/or an anti-CCR8 antibody, and frequencies of regulatory T-cells (Tregs; […]) or effector T-cells ([…]) were quantified. T test results are shown, wherein **** is p<0.0001, *** p<0.001, ** is p<0.01 and * is p<0.1.
A first study using the B16F10 model tested the relative antitumor activities of anti-CCR8 antibody and gemcitabine administrations as single agents and in combination. Following inoculation, mice were randomized and grouped (n=10 animals per group) when tumors reached 80-120 mm^3 and administered a single dose of low dose gemcitabine at 15 mg/kg (approximately 50% of most efficacious dose) and/or anti-CCR8 antibody Q3D at 1 mg/kg. A control group received an isotype control antibody. […] Tumors were collected at Day 5 post-dose. […] Briefly, tumors were dissociated and prepared for flow cytometry staining. Cells were stained as follows: L/D, CD45, CD3, CD4, CD8, CD25, FoxP3. Samples were acquired on flow cytometer and data generated was used to determine Treg frequency (L/D negative, CD45 positive, CD3 positive, CD4 positive, CD25 positive, FoxP3 positive) and CD8 frequency (L/D negative, CD45 positive, CD3 positive, CD8 positive).

| Structure (SMILES) | tumor growth inhibition [1] | tumor growth inhibition [2] | tumor growth inhibition [3] | CD8+ T-cell infiltration in the tumors (CD8 frequency) [4] |
| --- | --- | --- | --- | --- |
| CC(=O)O[C@@]12CO[C@@H]1C[C@H](O)[C@@]1(C)C(=O)[C@H](O)C3=C(C)[C@@H](OC(=O)[C@H](O)[C@@H](NC(=O)OC(C)(C)C)c4ccccc4)C[C@@](O)([C@@H](OC(=O)c4ccccc4)[C@H]21)C3(C)C [docetaxel] | did not result in substantial tumor growth inhibition | Partial tumor growth inhibition | – | – |
| Nc1ccn([C@@H]2O[C@H](CO)[C@@H](O)C2(F)F)c(=O)n1 [gemcitabine] | – | – | did not result in substantial tumor growth inhibition | significant CD8+ T-cell infiltration |
